Experimental data as given in PMC7932521, “2-aminobenzimidazoles for leishmaniasis: From initial hit discovery to in vivo profiling” (PLoS Neglected Tropical Diseases, 2021).
pEC50, pIC50: −log10 of the molar value. Read-outs that look alike come from different tables or passages of the source.

Assays:
[1] = tested on: PMM (Primary Mouse Macrophages); experiment: Cytotoxicity on primary peritoneal mouse macrophages; assay type: cell-based; conditions: Mus musculus, Macrophage
Outline: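 Host cells were peritoneal macrophages from Swiss mice, harvested after 2 days of starch stimulation and kept in RPMI-1640 with 5% FCS at 37 °C, 5% CO2. Compounds were tested in 4-fold dilutions from 64 μM, with final DMSO below 1%.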

[2] = Mouse liver microsomal stability; assay type: in vitro ADME
Outline: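 Test compound at 0.5 μM incubated with 0.25 mg/mL human (200-donor pool) or CD1 mouse liver microsomes, pH 7.4, 37°C, started with […]; sampled 0–30 min. LC-MS/MS quantitation against internal standard; t1/2 and Clint (μL/min/mg) from non-linear regression of % remaining versus time.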

[3] = Parallel artificial membrane permeability assay (PAMPA); assay type: in vitro ADME
Outline: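 Compounds at 10μM final in PBS pH 6.5 (donor) against PBS pH 7.4 (acceptor) across lipid-coated membranes, incubated 5 h at 37°C. Donor, acceptor and T0 levels measured by LC-MS/MS to derive effective permeability (Pe); n = 3.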

5-HT2A = target: T1, 5-HT2A (Homo sapiens, UniProt P28223); experiment: Bioprofiling 6pt Ag 5-HT2A CHO; assay type: cell-based; conditions: agonist readout
T1 construct: expressed in transfected cells; host or cells: CHO
Method: (§1) The compounds were evaluated across a panel of 20 liability targets (37 functional assays) which included functional cell-based GPCRs and ion channels in both agonist and antagonist readout, measuring calcium flux and biochemical functional assays for nuclear hormone receptors and phosphodiesterases using TR-FRET format, in a 6 point 1:3 dilution dose series (maximum final concentration of 10 μM).

CHO = experiment: Bioprofiling 6pt Ag CHO Hamster; assay type: cell-based; conditions: agonist readout
Method: as §1

Cav1.2 (L-type) [4] = target: T2, Cav1.2 (L-type) (Mus musculus, UniProt Q01815); experiment: Bioprofiling 6pt Ag Cav1.2 (L-type) ND7/23; assay type: cell-based; conditions: mouse/rat, ND7/23 cells; agonist readout
Method: as §1

5-HT1A = target: T3, 5-HT1A (Homo sapiens, UniProt P08908); experiment: Bioprofiling 6pt Antag 5-HT1A CHO; assay type: cell-based; conditions: antagonist readout vs 5-Carboxytryptamine (5-CT)
T3 construct: expressed in transfected cells; host or cells: CHO
T3 sequence (P08908 1-422): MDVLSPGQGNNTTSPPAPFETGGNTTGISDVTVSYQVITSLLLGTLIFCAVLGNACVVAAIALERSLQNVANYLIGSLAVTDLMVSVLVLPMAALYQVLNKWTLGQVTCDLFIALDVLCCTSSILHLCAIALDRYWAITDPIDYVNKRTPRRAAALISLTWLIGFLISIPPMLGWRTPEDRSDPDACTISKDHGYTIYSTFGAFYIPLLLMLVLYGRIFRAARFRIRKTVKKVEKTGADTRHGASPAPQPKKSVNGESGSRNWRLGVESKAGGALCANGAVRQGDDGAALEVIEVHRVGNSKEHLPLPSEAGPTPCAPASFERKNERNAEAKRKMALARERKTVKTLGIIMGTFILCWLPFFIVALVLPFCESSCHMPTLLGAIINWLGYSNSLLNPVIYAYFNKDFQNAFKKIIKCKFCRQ
Method: as §1

Alpha1A = target: T4, Alpha1A (Homo sapiens, UniProt P35348); experiment: Bioprofiling 6pt Antag Alpha1A CHO; assay type: cell-based; conditions: antagonist readout vs A-61603
T4 construct: expressed in transfected cells; host or cells: CHO
T4 sequence (P35348 1-466): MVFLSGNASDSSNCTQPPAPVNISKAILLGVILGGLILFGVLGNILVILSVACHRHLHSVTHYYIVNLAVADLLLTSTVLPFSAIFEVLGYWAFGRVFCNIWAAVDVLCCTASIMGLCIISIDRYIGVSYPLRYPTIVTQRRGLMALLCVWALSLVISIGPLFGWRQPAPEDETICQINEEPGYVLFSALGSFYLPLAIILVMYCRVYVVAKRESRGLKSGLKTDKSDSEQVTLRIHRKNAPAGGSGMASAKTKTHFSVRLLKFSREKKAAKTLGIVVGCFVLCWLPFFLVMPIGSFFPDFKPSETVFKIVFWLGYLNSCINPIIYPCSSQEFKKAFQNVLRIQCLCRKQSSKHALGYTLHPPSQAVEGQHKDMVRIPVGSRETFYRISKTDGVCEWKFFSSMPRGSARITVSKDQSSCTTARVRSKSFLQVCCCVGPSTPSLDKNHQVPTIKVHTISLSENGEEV
Method: as §1

Cav1.2 (L-type) [5] = target: T2, Cav1.2 (L-type); experiment: Bioprofiling 6pt Antag Cav1.2 (L-type) ND7/23; assay type: cell-based; conditions: mouse/rat, ND7/23 cells; antagonist readout vs KCl
Method: as §1

H1 = target: T5, H1 (Homo sapiens, UniProt P35367); experiment: Bioprofiling 6pt Antag H1 CHO; assay type: cell-based; conditions: antagonist readout vs Histamine
T5 construct: expressed in transfected cells; host or cells: CHO
Method: as §1

[6] = PAMPA, S1 Data, read-out: PAMPA Pe
[7] = read-out: IC-50 PMM (Primary Mouse Macrophages)
[8] = mouse liver microsome intrinsic clearance
[9] = passive permeability, read-out: PAMPA

T5 sequence (P35367 whole entry): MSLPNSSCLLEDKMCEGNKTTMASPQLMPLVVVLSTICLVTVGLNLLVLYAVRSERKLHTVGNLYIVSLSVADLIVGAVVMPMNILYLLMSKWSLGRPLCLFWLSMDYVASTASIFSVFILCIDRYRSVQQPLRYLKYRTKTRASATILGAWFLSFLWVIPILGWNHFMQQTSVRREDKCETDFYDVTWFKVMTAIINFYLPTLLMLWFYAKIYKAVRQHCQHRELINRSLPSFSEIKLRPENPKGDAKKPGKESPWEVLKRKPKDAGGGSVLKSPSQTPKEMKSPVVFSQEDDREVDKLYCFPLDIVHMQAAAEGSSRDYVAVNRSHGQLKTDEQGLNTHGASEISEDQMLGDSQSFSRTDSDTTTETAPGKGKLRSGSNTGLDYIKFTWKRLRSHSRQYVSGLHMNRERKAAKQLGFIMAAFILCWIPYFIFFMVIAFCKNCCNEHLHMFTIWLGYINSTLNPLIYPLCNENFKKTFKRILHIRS
T2 sequence (Q01815 whole entry): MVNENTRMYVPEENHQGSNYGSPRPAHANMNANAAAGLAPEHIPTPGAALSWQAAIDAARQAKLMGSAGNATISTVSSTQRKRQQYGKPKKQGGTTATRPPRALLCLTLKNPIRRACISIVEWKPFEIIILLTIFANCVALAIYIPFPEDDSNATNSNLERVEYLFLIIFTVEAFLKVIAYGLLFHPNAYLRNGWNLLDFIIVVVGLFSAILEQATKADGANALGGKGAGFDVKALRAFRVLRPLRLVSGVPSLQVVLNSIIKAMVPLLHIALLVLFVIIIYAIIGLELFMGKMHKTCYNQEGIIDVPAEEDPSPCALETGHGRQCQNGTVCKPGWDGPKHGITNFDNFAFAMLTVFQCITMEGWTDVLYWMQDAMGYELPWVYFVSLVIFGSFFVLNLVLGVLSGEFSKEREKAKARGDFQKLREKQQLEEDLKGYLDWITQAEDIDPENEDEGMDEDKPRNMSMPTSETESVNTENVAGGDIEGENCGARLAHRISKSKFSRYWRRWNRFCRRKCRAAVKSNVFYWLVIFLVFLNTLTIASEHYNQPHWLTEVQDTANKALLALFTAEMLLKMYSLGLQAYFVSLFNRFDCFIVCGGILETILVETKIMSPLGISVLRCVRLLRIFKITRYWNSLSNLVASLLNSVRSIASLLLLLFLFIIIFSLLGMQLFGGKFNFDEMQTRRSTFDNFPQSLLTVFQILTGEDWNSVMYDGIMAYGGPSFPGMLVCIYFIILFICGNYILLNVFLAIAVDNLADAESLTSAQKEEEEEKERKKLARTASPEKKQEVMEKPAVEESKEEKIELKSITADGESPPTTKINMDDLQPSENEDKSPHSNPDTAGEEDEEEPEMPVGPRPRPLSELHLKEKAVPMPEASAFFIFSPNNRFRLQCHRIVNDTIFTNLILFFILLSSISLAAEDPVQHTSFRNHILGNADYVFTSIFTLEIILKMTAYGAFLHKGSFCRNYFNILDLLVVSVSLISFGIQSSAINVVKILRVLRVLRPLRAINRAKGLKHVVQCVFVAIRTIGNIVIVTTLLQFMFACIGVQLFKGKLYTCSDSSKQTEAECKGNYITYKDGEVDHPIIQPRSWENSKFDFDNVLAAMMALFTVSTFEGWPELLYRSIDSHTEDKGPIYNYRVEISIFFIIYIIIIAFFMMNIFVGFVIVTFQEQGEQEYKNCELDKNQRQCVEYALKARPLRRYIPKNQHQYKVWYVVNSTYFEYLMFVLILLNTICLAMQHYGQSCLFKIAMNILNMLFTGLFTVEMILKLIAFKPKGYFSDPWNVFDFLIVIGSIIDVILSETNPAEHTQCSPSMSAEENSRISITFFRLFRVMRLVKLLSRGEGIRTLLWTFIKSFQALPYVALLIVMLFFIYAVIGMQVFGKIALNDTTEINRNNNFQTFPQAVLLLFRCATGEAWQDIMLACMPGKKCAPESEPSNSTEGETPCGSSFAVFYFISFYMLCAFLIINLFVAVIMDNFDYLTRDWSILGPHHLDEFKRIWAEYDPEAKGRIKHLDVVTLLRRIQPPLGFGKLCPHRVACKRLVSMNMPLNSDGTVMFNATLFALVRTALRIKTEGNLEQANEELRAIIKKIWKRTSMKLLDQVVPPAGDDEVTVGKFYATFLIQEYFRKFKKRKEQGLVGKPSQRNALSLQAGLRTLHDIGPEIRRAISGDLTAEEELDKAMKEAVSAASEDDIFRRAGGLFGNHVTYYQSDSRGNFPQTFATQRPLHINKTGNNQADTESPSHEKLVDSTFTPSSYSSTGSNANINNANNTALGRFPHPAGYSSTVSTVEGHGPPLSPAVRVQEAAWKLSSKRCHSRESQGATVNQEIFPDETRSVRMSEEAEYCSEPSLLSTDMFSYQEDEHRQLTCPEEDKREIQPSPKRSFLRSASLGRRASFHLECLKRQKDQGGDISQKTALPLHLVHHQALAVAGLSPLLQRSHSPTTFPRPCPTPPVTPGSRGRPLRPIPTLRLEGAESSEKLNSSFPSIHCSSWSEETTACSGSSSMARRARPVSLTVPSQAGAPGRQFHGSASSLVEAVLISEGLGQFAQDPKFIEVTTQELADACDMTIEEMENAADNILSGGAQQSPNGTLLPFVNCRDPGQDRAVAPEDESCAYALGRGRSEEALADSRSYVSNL
T1 sequence (P28223 whole entry): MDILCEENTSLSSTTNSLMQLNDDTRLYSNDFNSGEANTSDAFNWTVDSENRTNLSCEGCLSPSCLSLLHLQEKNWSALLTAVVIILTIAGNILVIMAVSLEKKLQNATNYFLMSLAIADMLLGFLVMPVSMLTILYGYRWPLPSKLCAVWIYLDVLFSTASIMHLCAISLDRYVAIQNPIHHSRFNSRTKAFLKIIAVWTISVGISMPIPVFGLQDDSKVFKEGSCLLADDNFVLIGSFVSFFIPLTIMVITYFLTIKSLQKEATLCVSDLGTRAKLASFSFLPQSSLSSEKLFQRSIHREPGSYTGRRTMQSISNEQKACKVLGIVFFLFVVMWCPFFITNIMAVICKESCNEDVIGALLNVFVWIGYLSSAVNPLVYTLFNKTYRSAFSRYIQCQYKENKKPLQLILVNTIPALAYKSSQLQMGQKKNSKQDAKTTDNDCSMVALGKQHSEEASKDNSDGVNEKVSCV

| SMILES | pIC50 ([1]; read-out: PMM IC50) | MLM CLint ([2]; S1 Data) | Papp at 5 h, 10 μM [3, 6] | pEC50 (5-HT2A) | pEC50 (CHO) | pEC50 (Cav1.2 (L-type) [4]) | pIC50 (5-HT1A) | pIC50 (Alpha1A) | pIC50 (Cav1.2 (L-type) [5]) | pIC50 (H1) | pIC50 [1, 7] | MLM CLint [2, 8] | Papp at 5 h, 10 μM [3, 9] | microsomal CLint at 0.5 μM ([2]; CD1, mouse, liver microsomes, pH 7.4, mouse liver microsome intrinsic clearance, read-out: MLM Clint) |
| --- | --- | --- | --- | --- | --- | --- | --- | --- | --- | --- | --- | --- | --- | --- |
| N#Cc1ccc2nc(NC(=O)c3ccc(C(F)(F)F)nc3)n(CC(F)(F)F)c2c1 [Compound 45, O=C(c1ccc(C(F)(F)F)nc1)Nc2nc(ccc(C#N)c3)c3n2CC(F)(F)F] | 5.10 | 18 µL/min/mg | 5.43 ×10⁻⁶ cm/s | < 5.00 | < 5.00 | < 5.00 | < 5.00 | < 5.00 | < 5.00 | < 5.00 | – | – | – | – |
| Cn1nc(C(F)(F)F)cc1C(=O)Nc1nc2ccc(C#N)cc2n1CC(F)(F)F [Compound 39, O=C(c1cc(C(F)(F)F)nn1C)Nc2nc(ccc(C#N)c3)c3n2CC(F)(F)F] | 5.90 | – | 2.4 ×10⁻⁶ cm/s | < 5.00 | < 5.00 | < 5.00 | < 5.00 | < 5.00 | < 5.00 | < 5.00 | 4.46 | 28 µL/min/mg | 10 ×10⁻⁶ cm/s | – |
| Cn1nccc1C(=O)Nc1nc2ccc(C#N)cc2n1CC(C)(C)C [Compound 29, O=C(Nc1n(CC(C)(C)C)c(c2n1)cc(C#N)cc2)c3n(C)ncc3] | 4.56 | – | 8.71 ×10⁻⁶ cm/s | < 5.00 | < 5.00 | < 5.00 | < 5.00 | < 5.00 | < 5.00 | < 5.00 | 4.31 | – | 4.7 ×10⁻⁶ cm/s | 17 µL/min/mg |
| N#Cc1ccc2nc(NC(=O)c3ccnc(C(F)(F)F)c3)n(CC(F)(F)F)c2c1 [Compound 44, O=C(c1ccnc(C(F)(F)F)c1)Nc2nc(ccc(C#N)c3)c3n2CC(F)(F)F] | 5.40 | – | 2.32 ×10⁻⁶ cm/s | < 5.00 | < 5.00 | < 5.00 | < 5.00 | < 5.00 | < 5.00 | < 5.00 | – | 27 µL/min/mg | 2.3 ×10⁻⁶ cm/s | – |
| Cn1nccc1C(=O)Nc1nc2ccc(C#N)cc2n1CC(F)(F)F [Compound 30, O=C(c1ccnn1C)Nc2nc(ccc(C#N)c3)c3n2CC(F)(F)F] | 4.49 | – | 27.9 ×10⁻⁶ cm/s | < 5.00 | < 5.00 | < 5.00 | < 5.00 | < 5.00 | < 5.00 | < 5.00 | – | 20 µL/min/mg | 7.9 ×10⁻⁶ cm/s | – |
| COc1ccc(C(=O)Nc2nc3ccc(C#N)cc3n2CC(F)(F)F)cn1 [Compound 43, O=C(c1ccc(OC)nc1)Nc2nc(ccc(C#N)c3)c3n2CC(F)(F)F] | 4.49 | 170 µL/min/mg | 14.7 ×10⁻⁶ cm/s | < 5.00 | < 5.00 | < 5.00 | < 5.00 | < 5.00 | < 5.00 | < 5.00 | – | – | – | – |
